Experimental data as given in PMC5418920 (The Open Medicinal Chemistry Journal, 2017).

biological target: ALR2 (Rattus norvegicus, UniProt P07943); assay: ALR2 enzymatic inhibition, spectrophotometric NADPH oxidation at 340 nm; assay type: biochemical; settings: not given

| Compound | IC50 [µM] |
| --- | --- |
| COc1ccc(C2(C)CC3(CN(CC(=O)O)C(=O)CO3)c3cc(Br)ccc3O2)cc1 (centres unmarked) [Compound 4, 2-(6-Bromo-2-(4-methoxyphenyl)-2-methyl-5'-oxospiro[chroman-4,2'-morpholin]-4'-yl) acetic acid] | 4.97 |
| CC1(C)CC2(CN(CC(=O)O)C(=O)O2)c2cc(Br)ccc2O1 (centres unmarked) [Compound 6, 2-(6-Bromo-2,2-dimethyl-2'-oxospiro[chroman-4,5'-oxazolidin]-3'-yl) acetic acid] | 17.3 |
| CC1(C)CC2(CN(CC(=O)O)C(=O)O2)c2ccccc2O1 (centres unmarked) [Compound 5, 2-(2,2-Dimethyl-2'-oxospiro[chroman-4,5'-oxazolidin]-3'-yl) acetic acid] | 42.3 |
| CC1(C)CC2(CN(CC(=O)O)C(=O)CO2)c2ccccc2O1 (centres unmarked) [Compound 7, 2-(2,2-Dimethyl-5'-oxospiro[chroman-4,2'-morpholin]-4'-yl) acetic acid] | 2 |

Next, values leading:

| IC50 [µM] | Compound |
| --- | --- |
| 4.17 | CC1(C)CC2(CN(CC(=O)O)CCO2)c2cc(Br)ccc2O1 (centres unmarked) [Compound 10, 2-(6-Bromo-2,2-dimethylspiro[chroman-4,2'-morpholin]-4'-yl) acetic acid] |
| 3.19 | COc1cc(COc2ccccc2C2(C)CN(CC(=O)O)C(=O)O2)cc(OC)c1OC (centres unmarked) [Compound 13, 2-(5-Methyl-2-oxo-5-(2-((3,4,5-trimethoxybenzyl)oxy)phenyl)oxazolidin-3-yl)acetic acid] |
| 4.13 | COc1cccc(COc2ccccc2C2(C)CN(CC(=O)O)C(=O)O2)c1 (centres unmarked) [Compound 11, 2-(5-(2-((3-Methoxybenzyl)oxy)phenyl)-5-methyl-2-oxooxazolidin-3-yl)acetic acid] |

same assay, conditions: IC50 4.97 vs 0.58 μM

| fold reduction in ARL2 inhibitory efficacy compared to parent 2 [fold] | Compound |
| --- | --- |
| ~8 | COc1ccc(C2(C)CC3(CN(CC(=O)O)C(=O)CO3)c3cc(Br)ccc3O2)cc1 (centres unmarked) [Compound 4, 2-(6-Bromo-2-(4-methoxyphenyl)-2-methyl-5'-oxospiro[chroman-4,2'-morpholin]-4'-yl) acetic acid] |
